According to PubChem BioAssay AID1963832 (Molecular Pharmacology Branch, DTP, NCI, 2024):

Tested on: 885724-159-R-J1-PDC complex spheroid viability
Assay: Anticancer human tumor 885724-159-R-J1-PDC patient-derived pancreatic adenocarcinoma cell line growth inhibition [POLQ]
Settings: for IC50: curve of first compound; for viability, T/C: stronger effect = lower value
Method in brief: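 PDC + HUVEC + MSC complex spheroids; POLQ inhibitors ± partner drugs; top conc. at/near clinical Cmax, else 10 microM (SN-38 1 microM), half-log dilutions; 37 degrees C, 5% CO2.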

[1] = second compound 0.0316 µM, first compound 0.0316 µM
[2] = second compound 0.0316 µM, first compound 0.1 µM
[3] = second compound 0.0316 µM, first compound 0.316 µM
[4] = second compound 0.0316 µM, first compound 1 µM
[5] = second compound 0.0316 µM, first compound 3.16 µM
[6] = second compound 0.0316 µM, first compound 10 µM
[7] = second compound 0.1 µM, first compound 0.0316 µM
[8] = second compound 0.1 µM, first compound 0.1 µM
[9] = second compound 0.1 µM, first compound 0.316 µM
[10] = second compound 0.1 µM, first compound 1 µM
[11] = second compound 0.1 µM, first compound 3.16 µM
[12] = second compound 0.1 µM, first compound 10 µM
[13] = second compound 0.316 µM, first compound 0.0316 µM
[14] = second compound 0.316 µM, first compound 0.1 µM
[15] = second compound 0.316 µM, first compound 0.316 µM
[16] = second compound 0.316 µM, first compound 1 µM
[17] = second compound 0.316 µM, first compound 3.16 µM
[18] = second compound 0.316 µM, first compound 10 µM
[19] = second compound 1 µM, first compound 0.0316 µM
[20] = second compound 1 µM, first compound 0.1 µM
[21] = second compound 1 µM, first compound 0.316 µM
[22] = second compound 1 µM, first compound 1 µM
[23] = second compound 1 µM, first compound 3.16 µM
[24] = second compound 1 µM, first compound 10 µM
[25] = second compound 3.16 µM, first compound 0.0316 µM
[26] = second compound 3.16 µM, first compound 0.1 µM
[27] = second compound 3.16 µM, first compound 0.316 µM
[28] = second compound 3.16 µM, first compound 1 µM
[29] = second compound 3.16 µM, first compound 3.16 µM
[30] = second compound 3.16 µM, first compound 10 µM
[31] = second compound 10 µM, first compound 0.0316 µM
[32] = second compound 10 µM, first compound 0.1 µM
[33] = second compound 10 µM, first compound 0.316 µM
[34] = second compound 10 µM, first compound 1 µM
[35] = second compound 10 µM, first compound 3.16 µM
[36] = second compound 10 µM, first compound 10 µM
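Further: spheroids exposed to compounds for 7 days.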

C=CC(=O)N1CCN(c2nc(=O)n(-c3c(C)ccnc3C(C)C)c3nc(-c4c(O)cccc4F)c(F)cc23)C(C)C1 (centres undefined) + Nc1ccc(C#CCN(C(=O)Cc2ncc(C(F)(F)F)cc2C(F)(F)F)c2ccc(F)cc2)nn1
IC50 (second compound 0.0316 µM): > 10000 nM | IC50 (second compound 0.1 µM): > 10000 nM | IC50 (second compound 0.316 µM): > 10000 nM | IC50 (second compound 1 µM): > 10000 nM | IC50 (second compound 3.16 µM): > 10000 nM | IC50 (second compound 10 µM): > 10000 nM | viability, T/C [1]: 96.3% | viability, T/C [2]: 86% | viability, T/C [3]: 101% | viability, T/C [4]: 106% | viability, T/C [5]: 103% | viability, T/C [6]: 98.6% | viability, T/C [7]: 108% | viability, T/C [8]: 112% | viability, T/C [9]: 110% | viability, T/C [10]: 102% | viability, T/C [11]: 122% | viability, T/C [12]: 94% | viability, T/C [13]: 96.5% | viability, T/C [14]: 102% | viability, T/C [15]: 105% | viability, T/C [16]: 102% | viability, T/C [17]: 110% | viability, T/C [18]: 90.4% | viability, T/C [19]: 96.4% | viability, T/C [20]: 87.5% | viability, T/C [21]: 93.2% | viability, T/C [22]: 109% | viability, T/C [23]: 110% | viability, T/C [24]: 97.3% | viability, T/C [25]: 96.9% | viability, T/C [26]: 92.9% | viability, T/C [27]: 98.4% | viability, T/C [28]: 100% | viability, T/C [29]: 117% | viability, T/C [30]: 83.6% | viability, T/C [31]: 95.7% | viability, T/C [32]: 104% | viability, T/C [33]: 98.6% | viability, T/C [34]: 111% | viability, T/C [35]: 97.5% | viability, T/C [36]: 91.1%

CC1COCCN1c1cc(C2(O)CC3CCC(C2)O3)c2cnn(-c3ccn[nH]3)c2n1 (centres undefined) + Nc1ccc(C#CCN(C(=O)Cc2ncc(C(F)(F)F)cc2C(F)(F)F)c2ccc(F)cc2)nn1
IC50 (second compound 0.0316 µM): 321 nM | IC50 (second compound 0.1 µM): 237 nM | IC50 (second compound 0.316 µM): 177 nM | IC50 (second compound 1 µM): 237 nM | IC50 (second compound 3.16 µM): 202 nM | IC50 (second compound 10 µM): 236 nM | viability, T/C [1]: 72.7% | viability, T/C [2]: 54.7% | viability, T/C [3]: 50.8% | viability, T/C [4]: 42.6% | viability, T/C [5]: 36.3% | viability, T/C [6]: 26.8% | viability, T/C [7]: 77.8% | viability, T/C [8]: 58.3% | viability, T/C [9]: 46.2% | viability, T/C [10]: 40.6% | viability, T/C [11]: 37.4% | viability, T/C [12]: 31.4% | viability, T/C [13]: 72.4% | viability, T/C [14]: 52.5% | viability, T/C [15]: 45.2% | viability, T/C [16]: 38.9% | viability, T/C [17]: 39.9% | viability, T/C [18]: 28.4% | viability, T/C [19]: 65.2% | viability, T/C [20]: 51.5% | viability, T/C [21]: 47.7% | viability, T/C [22]: 43.6% | viability, T/C [23]: 35.9% | viability, T/C [24]: 27% | viability, T/C [25]: 67% | viability, T/C [26]: 53% | viability, T/C [27]: 45.4% | viability, T/C [28]: 43.5% | viability, T/C [29]: 35.3% | viability, T/C [30]: 30.4% | viability, T/C [31]: 62.9% | viability, T/C [32]: 53% | viability, T/C [33]: 49.4% | viability, T/C [34]: 41.8% | viability, T/C [35]: 37% | viability, T/C [36]: 30.5%
